Among the data in a melting point compilation (Tetko et al.) are melting point values, retold here.

What is called melting point is the temperature, or range, at which the solid turns liquid. In turn, `COC1=C(OC)C(C(COS(C)(=O)=O)OS(C)(=O)=O)OC1=O` (stereo not given) gave a melting point of 77 to 79 °C. Compound `Fc1ccc(C2CCNCC2COc2ccc3c(c2)OCO3)cc1` (stereo not given) yielded a melting point of 130 °C. Take `CCC(C)(C)c1ccc(O)cc1`: the melting point worked out at 95 °C. To `C=CC1CN2CCC1CC2c1[nH]c2ccccc2c1CCO` (stereo not given) belongs 186 °C. In the case of `CN(C)C(=O)CCC(=O)O` it was 84.5 °C. To `COc1ccc(C(=O)c2cc(OC)c(OC)cc2[N+](=O)[O-])cc1` belongs 147 °C; to `c1ccc(-c2c3ccccc3c(-c3ccccc3)c3c(-c4ccccc4)c4ccccc4c(-c4ccccc4)c23)cc1`, 332 °C. Take `Nc1cc2ccccc2c(Br)n1`: the melting point fell in the range of 144 to 146 °C. In the case of `C#CC1(O)CCC2(C)C(CCC3C2CCC2(C)C(OC(C)=O)CCC32)C1` (stereo not given) it was 196 °C; in that of `CC(C)(C)N=O`, 81 to 83 °C.

On to `CC(=O)OC1CCC2(C)C(=CCC3C2CCC2(C)C3CCC2C2(CBr)OCCO2)C1` (stereo not given), for which the melting point was 170 to 172 °C.

In the case of `CC(/C=N/NC(N)=O)=N\NC(N)=O`, the melting point stood at 255 °C. As for `CCOC(=O)c1csnn1`, the melting point is 86 to 88 °C. In the case of `CCCCCCCCCCCCOCCOCCOCCOCCOCCOCCO` it was 27 °C; in that of `Brc1ccc(Br)nn1`, 116 to 117 °C. To `Oc1ccccc1N1CCCCC1` belongs 75 °C. In the case of `c1ccc2c(P(c3cccc4ccccc34)c3cccc4ccccc34)cccc2c1` it was 265 to 268 °C.

The compound `Cc1c(Cl)ccc([N+](=O)[O-])c1Cl` returned a melting point of 54 °C. To `O=[N+]([O-])c1ccc(F)c2nonc12` belongs 52 °C; to `COc1c(Br)ccc2c1C(=NNc1ccc([N+](=O)[O-])cc1[N+](=O)[O-])C2`, 309 to 310 °C.

Turning to `ON=C1C2CC3CC(C2)CC1C3`, the melting point lay in the range of 150 to 151 °C. In the case of `COc1cc(F)c(Br)cc1F` it was 63 °C. Compound `CC(=O)OCC1OCC(OC(C)=O)(C2C=Nc3c2ncn(C2(OC(C)=O)COC(COC(C)=O)C2OC(C)=O)c3=O)C1OC(C)=O` (stereo not given) yielded a melting point of 76 °C. To `O=C(O)C(=O)c1ccc([N+](=O)[O-])cc1` belongs 110 °C; to `CC(=O)Nc1ccc(N=Nc2ccc(N)cc2)cc1`, 212 °C. To `C(#Cc1ccc(C#Cc2ccccc2)cc1)c1ccccc1` belongs 177 °C; to `CC(C)(C)OC(=O)N[C@@H](Cc1ccc(O)cc1)C(=O)O`, 135 to 140 °C.

`NNc1nc(-c2ccccc2)c2c(N)n[nH]c2n1` displayed a melting point of 241 to 244 °C. In the case of `CC(=O)Nc1cccc(N)c1C(=O)O` it was 184 °C; in that of `Cc1ccncc1C`, -11 °C. To `O=C(C=Cc1ccc(-c2ccc([N+](=O)[O-])cc2)o1)c1ccccc1` belongs 157 to 158 °C; to `Cc1cc(Oc2ccc(N)cn2)cc(C)c1Cl`, 96 to 98 °C. To `COc1cc([N+](=O)[O-])cc(C=O)c1O` belongs 140 °C; to `CCCC(Cn1cncn1)c1ccc(Cl)cc1Cl` (stereo not given), 60.3 °C. The compound `CCCCCCCOC(=O)CCCCCC` showed a melting point of -33 °C.

As to `CCCCOC(=O)C1=C(C)NC(C)=C(C(=O)OCCCC)C1c1ccco1`, the melting point stood at 87 °C.

For `COC(C)=O`, the melting point was -98 °C.

The compound `COc1ccc(C(O)C(C)(C)C(=O)O)cc1` (stereo not given) showed a melting point of 115 to 117 °C. In the case of `CN1C(=O)Cc2cc(Br)ccc21` it was 132 to 133 °C. In the case of `Nc1c(Oc2ccccc2)c(Oc2ccccc2)c(N)c2c1C(=O)c1ccccc1C2=O` it was 195 °C; in that of `O=C(O)c1ccc(C(F)(F)F)c(F)c1`, 175 °C.

In turn, `O=[N+]([O-])c1ccccc1OCCBr` had a melting point of 40 to 44 °C. In the case of `CCOC(=O)c1cnc2c(c(C)nn2C)c1Cl` it was 87 to 90 °C; in that of `O=C(O)c1cc(F)c(F)cc1[N+](=O)[O-]`, 165 °C. In the case of `O=C(O)CCC12CC3CC(CC(C3)C1)C2` it was 147 to 148 °C; in that of `NS(=O)(=O)c1ccc(N=C=S)cc1`, 210 to 212 °C; in that of `Cc1cc(C2(c3ccc(O)c(C)c3)OS(=O)(=O)c3ccccc32)ccc1O`, 290 °C. In the case of `N#CCc1cc(Cl)ccc1[N+](=O)[O-]` it was 87 °C. `O=Cc1cccc(OCc2ccccc2)c1`: the melting point came out at 56 °C.

For `CNc1cc(Cl)ccc1[N+](=O)[O-]`, the melting point is 104 to 107 °C. Consider `O[C@@H]1CC2=C(CCCC2)C[C@@H]1O`, for which the melting point lay in the range of 120 to 121 °C.

`Cc1ccc(S(=O)(=O)c2ncsc2SCc2ccc(Cl)cc2)cc1`: the melting point fell in the range of 151 to 153 °C. In the case of `CCOC(=O)c1sc2sc(C#N)c(C)c2c1C` it was 155 to 157 °C. Consider `C#CCCC#C`, for which the melting point was -6 °C.

`Cc1ncccc1N` came in with a melting point of 117 °C. For `CN(C)Cc1c(O)c(Br)c(C(=O)O)c(Br)c1O`, the melting point stood at 208 °C.

Take `O=C(Nc1ccc(Cl)cc1)Nc1ccc(Cl)cc1`: the melting point was determined as 270 °C.

With `CCCC(=O)OC`, the melting point was -84.5 °C.

`CNc1ccc(NC)c2c1C(=O)c1ccccc1C2=O` gave a melting point of 220 °C. The compound `COc1ccccc1OCC(N)=O` returned a melting point of 142 °C. In the case of `Clc1ccc(-n2cccc2)cc1` it was 88 to 91 °C. In turn, `CC1(C)OC(=O)C(=NNc2ccc(O)cc2)C(=O)O1` registered a melting point of 238 °C. In the case of `NC(=S)Nc1cccc(Cl)c1` it was 137 to 138 °C; in that of `CCCn1cnc2c1c(=O)n(CCCCC(C)=O)c(=O)n2C`, 69 °C.

Compound `Cn1[nH]c(N)c2c(=O)c(C(=O)O)cnc1-2` returned a melting point of 224 °C. To `CC(C)(C)OC(=O)NN1CCCC1C(=O)O` (stereo not given) belongs 134 to 137 °C.

For the compound `CC(C)CCCCCCCCCCCO`, the melting point turned out to be 10.5 °C. To `Clc1ncnc2sc3c(c12)CCCC3` belongs 96 °C; to `Cc1noc(-c2ccc(C(=O)Cl)cc2)n1`, 115 to 117 °C. In the case of `OC(O)C(Cl)(Cl)Cl` it was 57 °C. `CN1CCOc2cc(S(=O)(=O)Cl)ccc21` gave a melting point of 66 to 68 °C. `CC(=O)OC[C@@H](OC(C)=O)[C@H](OC(C)=O)[C@H](OC(C)=O)[C@@H](OC(C)=O)C(=O)CBr` displayed a melting point of 123 to 125 °C.

For `N#Cc1ccccc1OCC(O)CNCCNC(=O)Cc1ccc(O)cc1` (stereo not given), the melting point worked out at 119 °C.

The compound `CC(=O)N(CC(C)C(=O)O)c1c(I)cc(I)c(N)c1I` (stereo not given) returned a melting point of 224 °C.

For the compound `CCOC(=O)C(C)(C)C1(O)CCC2(C)C(CCC3C2CCC2(C)C(OCc4ccccc4)CCC32)C1` (stereo not given), the melting point was determined as 147 °C.

Take `O=C(O)c1c(O)ccc(F)c1F`: the melting point is 183 °C.

Take `O=C(O)c1cccc(S(=O)(=O)Nc2ccccc2)c1`: the melting point is 236 °C. To `CC(C)(C)OC(=O)n1cc(C(=O)O)c2c(Br)cccc21` belongs 149 to 150 °C; to `FC(F)(F)c1cccnc1Br`, 38 °C. To `Cc1cccc(-n2cc[nH]c2=S)c1` belongs 153 to 154 °C; to `COC(=O)C1=C(N)CCN(Cc2ccccc2)C1`, 87 to 89 °C; to `O=C(N[C@@H](Cc1ccc(F)cc1)C(=O)O)OCC1c2ccccc2-c2ccccc21`, 185 °C.

Compound `O=C1CCC(=O)N1Br` registered a melting point of 177 °C.

As to `Cc1ccccc1/N=N/c1c(C)[nH]c(=S)c(C#N)c1C`, the melting point was determined as 178 °C.

`O=C(O)Cc1c(F)c(F)c(F)c(F)c1F` had a melting point of 109 °C. In the case of `N=C1c2ccccc2C(=O)N1c1n[nH]c2ncccc12` it was 252 to 255 °C.

`N#Cc1cc([N+](=O)[O-])ccc1Sc1ccc(Cl)cc1` had a melting point of 167 to 168 °C.

`O=C1CCC2CC1CCC2=O`: the melting point is 151 °C. In the case of `CC1CCCC(=O)C1` (stereo not given) it was -73 °C. In the case of `Oc1cccc(Cl)n1` it was 130 °C; in that of `Brc1ccc(Oc2ccc(Br)cc2Br)c(Br)c1`, 78.5 to 79 °C. Take `Cc1ccc(C(C)CCC(=O)O)cc1` (stereo not given): the melting point was 42 °C. The compound `CCC1(CC2(c3cccc(Cl)c3)CO2)C(=O)c2ccccc2C1=O` (stereo not given) showed a melting point of 61 °C. To `CCOC(=O)c1ccc(Oc2ccc(C)nn2)cc1` belongs 70 to 73 °C; to `Fc1cnc(Cl)nc1Cl`, 38 °C; to `Nc1ccc2nccnc2c1`, 159 °C. To `OCc1cc(-c2cccs2)on1` belongs 62 to 64 °C; to `CC(=O)Nc1cc(N)c(C=Cc2ccccc2)cc1/C=C/c1ccccc1`, 218 °C; to `COc1ccc(CCN2CCc3c([nH]c4ccccc34)C2=O)cc1OC`, 206 to 207 °C. The compound `C=CCC1(C(C)CC)C(=O)NC(=O)NC1=O` (stereo not given) came in with a melting point of 109 °C. On to `O=C(O)[C@@H]1CSCN1C(=O)OCC1c2ccccc2-c2ccccc21`, for which the melting point lay within 156 to 158 °C. To `Clc1cc(Cl)c2nsnc2c1Cl` belongs 122 °C. To `COc1ccc(OC)c(C(=O)CCCCC(=O)O)c1` belongs 76 °C; to `Nc1ccc(SCC(=O)O)cc1`, 193 to 203 °C. To `Cn1nnc2cc(C(=O)O)ccc21` belongs 250 °C; to `OCCn1ccnc1`, 39 °C. Regarding `Cc1cc(C)c(NC(N)=S)c(C)c1`, the melting point came out at 231 °C. To `CCOC(=O)c1cnc(C(F)(F)F)nc1Cl` belongs 36 to 37 °C; to `O=C(OCC(=O)N1CCC(O)CC1)c1ccccc1`, 122 °C. In the case of `c1ccc2c(c1)Sc1ccccc1N2CC1CN2CCC1CC2` (stereo not given) it was 130 °C.
